# Where two headings read alike, the source gives them in different places.
# What was measured:
# [1] = Plasma pharmacokinetics (LC-MS/MS); type: in vivo, human; details: human, plasma, oral
# Method: Peripheral blood was collected serially to quantify plasma levels of sapanisertib for PK analysis via validated liquid chromatography tandem mass spectrometry with an assay range of 1–1000 ng/mL (MicroConstants, San Diego, CA), during both dose-escalation and expansion phases. Blood samples were collected before each dose and 0.5, 1, 2, 4, 8 and 24 h after dosing on cycle 1, day 1 and cycle 2, day 1, in the dose-escalation phase. In the expansion phase, samples were collected predose and 2, 4 and 6 h postdose on cycle 1, day 1, and then predose and 2 h postdose on day 8, 15 or 22 of cycle 1.
# [2] = system: p4EBP1, pS6, pPRAS40 and pNDRG1 (TORC1/2 biomarkers); assay: Pharmacodynamics in skin biopsies (IHC); type: in vivo, human; details: doses of ≥4 mg; baseline vs days 8–15 (3 h postdose) of cycle 1
# Method: The tissue PK and PD of sapanisertib were investigated in skin and tumour biopsies. During dose escalation, 3-mm core skin biopsies were collected predose and on any day from 8–15 (3 h postdose) of cycle 1 for immunohistochemistry (IHC) assessment of mTORC1 downstream effects (p4EBP1, pS6) and pNDRG1 (Mosaic Laboratories, Lake Forest, CA). […] Archival tumour tissues for assessment of prognostic markers were collected at baseline.
# During dose-escalation, the PD effect of sapanisertib on downstream effectors of TORC1 (p4EBP1 and pS6) and TORC2 (pPRAS40 and pNDRG1) was measured in skin-tissue biopsies from 88 patients collected at baseline and days 8–15 (3 h postdose) of cycle 1. […] PD data in tumour tissue were limited due to the small number of samples. For the five patients with paired tumour samples available for review (biopsies at baseline and cycle 1, week 2), the levels of p4EBP1, pS6, pPRAS40 and pNDRG1 decreased after sapanisertib treatment (Supplementary Fig. 4).
structure (smiles),measurement,setting,value
CC(C)n1nc(-c2ccc3oc(N)nc3c2)c2c(N)ncnc21 [Sapanisertib],Cmax,"[1]; 9 mg, cycle 2, day 1, QDx3dQW 9 mg",83.1 ng/mL
same,AUC(0-t),"[1]; 9 mg, cycle 2, day 1, QDx3dQW 9 mg, read-out: AUC0–24h [%CV]",707 ng·h/mL
same,Tmax,"[1]; 9 mg, cycle 2, day 1, QDx3dQW 9 mg, read-out: Tmax, median",2.1 h
same,half-life,"[1]; 9 mg, cycle 2, day 1, QDx3dQW 9 mg, read-out: t½ (converted)",6.9 h
same,Cmax,"[1]; 10 mg, cycle 1, day 1, 10 mg",48.4 ng/mL
same,AUC(0-t),"[1]; 10 mg, cycle 1, day 1, 10 mg, read-out: AUC0–24h [%CV]",342 ng·h/mL
same,AUC(0-t),"[1]; 10 mg, cycle 1, day 1, 10 mg, read-out: AUC0–last [%CV]",153 ng·h/mL
same,Tmax,"[1]; 10 mg, cycle 1, day 1, 10 mg, read-out: Tmax, median",2.8 h
same,half-life,"[1]; 10 mg, cycle 1, day 1, 10 mg, read-out: t½ (converted)",6.4 h
same,Cmax,"[1]; 10 mg, cycle 2, day 1, QDx5dQW 10 mg",57 ng/mL
same,AUC(0-t),"[1]; 10 mg, cycle 2, day 1, QDx5dQW 10 mg, read-out: AUC0–24h [%CV]",366 ng·h/mL
same,half-life,"[1]; 10 mg, cycle 2, day 1, QDx5dQW 10 mg, read-out: t½ (converted)",5.7 h
same,Tmax,"[1]; 10 mg, cycle 2, day 1, QW 10 mg, read-out: Tmax, median",2.9 h
same,Cmax,"[1]; 12 mg, cycle 1, day 1, 12 mg",99.5 ng/mL
same,AUC(0-t),"[1]; 12 mg, cycle 1, day 1, 12 mg, read-out: AUC0–24h [%CV]",730 ng·h/mL
same,half-life,"[1]; 12 mg, cycle 1, day 1, 12 mg, read-out: t½ (converted)",7.4 h
same,Cmax,"[1]; 12 mg, cycle 2, day 1, QDx3dQW 12 mg",113 ng/mL
same,AUC(0-t),"[1]; 12 mg, cycle 2, day 1, QDx3dQW 12 mg, read-out: AUC0–24h [%CV]",707 ng·h/mL
same,Tmax,"[1]; 12 mg, cycle 2, day 1, QDx3dQW 12 mg, read-out: Tmax, median",3.7 h
same,half-life,"[1]; 12 mg, cycle 2, day 1, QDx3dQW 12 mg, read-out: t½ (converted)",4.9 h
same,Cmax,"[1]; 13 mg, cycle 1, day 1, 13 mg",93.6 ng/mL
same,AUC(0-t),"[1]; 13 mg, cycle 1, day 1, 13 mg, read-out: AUC0–24h [%CV]",953 ng·h/mL
same,Tmax,"[1]; 13 mg, cycle 1, day 1, 13 mg, read-out: Tmax, median",2.1 h
same,half-life,"[1]; 13 mg, cycle 1, day 1, 13 mg, read-out: t½ (converted)",8.7 h
same,Cmax,"[1]; 15 mg, cycle 1, day 1, 15 mg",56.7 ng/mL
same,AUC(0-t),"[1]; 15 mg, cycle 1, day 1, 15 mg, read-out: AUC0–24h [%CV]",518 ng·h/mL
same,half-life,"[1]; 15 mg, cycle 1, day 1, 15 mg, read-out: t½ (converted)",9.4 h
same,Cmax,"[1]; 15 mg, cycle 2, day 1, QW 15 mg",64.9 ng/mL
same,AUC(0-t),"[1]; 15 mg, cycle 2, day 1, QW 15 mg, read-out: AUC0–24h [%CV]",604 ng·h/mL
same,Cmax,"[1]; 16 mg, cycle 1, day 1, 16 mg",66.7 ng/mL
same,AUC(0-t),"[1]; 16 mg, cycle 1, day 1, 16 mg, read-out: AUC0–24h [%CV]",689 ng·h/mL
same,Tmax,"[1]; 16 mg, cycle 1, day 1, 16 mg, read-out: Tmax, median",2.1 h
same,half-life,"[1]; 16 mg, cycle 1, day 1, 16 mg, read-out: t½ (converted)",7 h
same,Cmax,"[1]; 16 mg, cycle 2, day 1, QDx3dQW 16 mg",92.1 ng/mL
same,AUC(0-t),"[1]; 16 mg, cycle 2, day 1, QDx3dQW 16 mg, read-out: AUC0–24h [%CV]",744 ng·h/mL
same,Tmax,"[1]; 16 mg, cycle 2, day 1, QDx3dQW 16 mg, read-out: Tmax, median",2.1 h
same,Cmax,"[1]; 20 mg, cycle 1, day 1, 20 mg",154 ng/mL
same,AUC(0-t),"[1]; 20 mg, cycle 1, day 1, 20 mg, read-out: AUC0–24h [%CV]",1260 ng·h/mL
same,Tmax,"[1]; 20 mg, cycle 1, day 1, 20 mg, read-out: Tmax, median",2.1 h
same,half-life,"[1]; 20 mg, cycle 1, day 1, 20 mg, read-out: t½ (converted)",6.5 h
same,Tmax,"[1]; 20 mg, cycle 2, day 1, QW 20 mg, read-out: Tmax, median",4 h
same,Cmax,"[1]; 30 mg, cycle 1, day 1, 30 mg",162 ng/mL
same,AUC(0-t),"[1]; 30 mg, cycle 1, day 1, 30 mg, read-out: AUC0–24h [%CV]",1080 ng·h/mL
same,half-life,"[1]; 30 mg, cycle 1, day 1, 30 mg, read-out: t½ (converted)",5.9 h
same,Cmax,"[1]; 30 mg, cycle 2, day 1, QW 30 mg",133 ng/mL
same,AUC(0-t),"[1]; 30 mg, cycle 2, day 1, QW 30 mg, read-out: AUC0–24h [%CV]",1120 ng·h/mL
same,Tmax,"[1]; 30 mg, cycle 2, day 1, QW 30 mg, read-out: Tmax, median",4 h
same,half-life,"[1]; 30 mg, cycle 2, day 1, QW 30 mg, read-out: t½ (converted)",5.7 h
same,Cmax,"[1]; 40 mg, cycle 1, day 1, 40 mg",172 ng/mL
same,AUC(0-t),"[1]; 40 mg, cycle 1, day 1, 40 mg, read-out: AUC0–24h [%CV]",1640 ng·h/mL
same,Tmax,"[1]; 40 mg, cycle 1, day 1, 40 mg, read-out: Tmax, median",2.4 h
same,half-life,"[1]; 40 mg, cycle 1, day 1, 40 mg, read-out: t½ (converted)",7.6 h
same,Cmax,"[1]; 40 mg, cycle 2, day 1, QW 40 mg",232 ng/mL
same,AUC(0-t),"[1]; 40 mg, cycle 2, day 1, QW 40 mg, read-out: AUC0–24h [%CV]",2220 ng·h/mL
same,half-life,"[1]; 40 mg, cycle 2, day 1, QW 40 mg, read-out: t½ (converted)",6.4 h
same,Tmax,"[1]; range across all doses, read-out: Median Tmax",1 to 2.8 h
same,half-life,"[1]; range, 2–40 mg dose range, read-out: Mean plasma half-life",5.9 to 9.4 h
same,"Change in p4EBP1, pS6, pPRAS40 and pNDRG1 in skin",[2],Treatment-related decreases

# Reference: paper PMC7686313, “Phase 1 study of mTORC1/2 inhibitor sapanisertib (TAK-228) in advanced solid tumours, with an expansion phase in renal, endometrial or bladder cancer” (British Journal of Cancer, 2020)
